SMILES strings stand for the structures. pKi: −log10 of the molar value.

The values that follow come from US20080227803A1, “Indolomorphinan Derivative Having Carboxy in 6'-Position” (SHIOONOGI & CO., LTD., a legal entity of Japan, priority 2004, published 2008).

The test system of assay [1] is retching and emesis induced by morphine. The experiment in a line: Effect on the retching and emesis induced by morphine in ferrets. The class given is in vivo. The settings on record: for Duration / Occurrence times / Latent period: mean ± SE; for Latent period: no symptom = 30 min; for Number of individuals with the symptom/Number of cases: morphine 0.6 mg/kg s.c., 30 min observation. As for the experimental part:
About 30 minutes after feeding, ferrets were placed into observation cages and administered with the test compound. The test compound was dissolved into 15% Solutol (Registered trademark) HS15 containing 5% of N,N-dimethylacetamide and 5% of N-methyl-glucamine, and administered at 5 mg/kg. Thirty minutes after administration of the test compound solution, morphine at 0.6 mg/kg was subcutaneously administered in a solution volume of 1 mL/kg, and the retching and emesis symptoms were visually observed for 30 minutes after administration of morphine.
The frequency, latency (the period from the administration of morphine to the initial occurrence of emetic symptom) and duration (the period from the initial emesis to the final emesis) of retching (rhythmical contraction of abdomen), emesis (emetic behavior to discharge the vomit or similar behavior) and both the symptoms were tabulated.
Meanwhile, the latency of a case showing no emesis was assumed to be 30 minutes that were the longest time of observation, and a duration of less than 1 minute after the occurrence of emesis was expressed as 1 minute for the sake of convenience.

The target of assay [2] is T1, opioid δ receptor (Rattus norvegicus, UniProt P33533).
T1 construct: Four hundred and eighty microliters of the rat cerebrum membrane fraction; from tissue; host or cells: rat (Slc:SD) cerebrum, crude membrane fraction
Briefly: Opioid receptor binding assay, [3H]-DADLE, rat cerebrum membrane fraction.

Where [3] appears, read: Retching + emesis, I-1 0.05 mg/kg.
The mark [4] stands for this setting: Retching + emesis, I-1 0.5 mg/kg.

T1 sequence (P33533 whole entry): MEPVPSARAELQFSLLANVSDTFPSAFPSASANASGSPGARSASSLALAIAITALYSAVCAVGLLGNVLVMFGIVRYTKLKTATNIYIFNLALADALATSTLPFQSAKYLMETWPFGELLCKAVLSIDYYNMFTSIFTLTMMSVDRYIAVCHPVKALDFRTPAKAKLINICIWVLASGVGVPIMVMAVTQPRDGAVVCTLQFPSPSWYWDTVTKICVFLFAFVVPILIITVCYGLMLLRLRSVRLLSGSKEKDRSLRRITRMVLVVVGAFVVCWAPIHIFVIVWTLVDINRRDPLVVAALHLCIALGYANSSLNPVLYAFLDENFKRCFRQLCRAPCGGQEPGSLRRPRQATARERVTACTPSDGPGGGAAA

Consider `O=C(O)c1ccc2c3c([nH]c2c1)[C@@H]1Oc2c(O)ccc4c2[C@@]12CCN(CC1CC1)[C@H](C4)[C@]2(O)C3` [Compound I-1, 17-cyclopropylmethyl-6,7-didehydro-4,5α-epoxy-3,14β-dihydroxy-6′-carboxy-6,7-2′,3′-indolomorphinan], for which the Duration in assay [1] (Emesis, I-1 0.05 mg/kg) is recorded as 0 ± 0 min; in assay [1] (Emesis, I-1 0.5 mg/kg), 0 ± 0 min; in assay [1] (Emesis, I-1 5 mg/kg), 0 ± 0 min; in assay [1] (setting [3]), 0 ± 0 min; in assay [1] (setting [4]) it was 0 ± 0 min; in assay [1] (Retching + emesis, I-1 5 mg/kg) it was 0 ± 0 min. In addition, the Duration in assay [1] (Retching, I-1 0.05 mg/kg) turned out to be 0 ± 0 min; in assay [1] (Retching, I-1 0.5 mg/kg), 0 ± 0 min; in assay [1] (Retching, I-1 5 mg/kg), 0 ± 0 min. For the same compound, the Occurrence times in assay [1] (Emesis, I-1 0.05 mg/kg) came out at 0 ± 0; in assay [1] (Emesis, I-1 0.5 mg/kg), 0 ± 0; in assay [1] (Emesis, I-1 5 mg/kg), 0 ± 0; in assay [1] (setting [3]) it was 0 ± 0; in assay [1] (setting [4]), 0 ± 0; in assay [1] (Retching + emesis, I-1 5 mg/kg), 0 ± 0. Also, the Occurrence times in assay [1] (Retching, I-1 0.05 mg/kg) is given as 0 ± 0; in assay [1] (Retching, I-1 0.5 mg/kg), 0 ± 0; in assay [1] (Retching, I-1 5 mg/kg), 0 ± 0. The Latent period is 30 ± 0 min in assay [1] (Emesis, I-1 0.05 mg/kg); 30 ± 0 min in assay [1] (Emesis, I-1 0.5 mg/kg); 30 ± 0 min in assay [1] (Emesis, I-1 5 mg/kg); 30 ± 0 min in assay [1] (setting [3]); 30 ± 0 min in assay [1] (setting [4]); 30 ± 0 min in assay [1] (Retching + emesis, I-1 5 mg/kg). Besides, the Latent period in assay [1] (Retching, I-1 0.05 mg/kg) is 30 ± 0 min; in assay [1] (Retching, I-1 0.5 mg/kg) it was 30 ± 0 min; in assay [1] (Retching, I-1 5 mg/kg), 30 ± 0 min. Moreover, the “Number of individuals with the symptom/Number of cases” value in assay [1] (Emesis, I-1 0.05 mg/kg) is listed as 0/6; in assay [1] (Emesis, I-1 0.5 mg/kg), 0/6; in assay [1] (Emesis, I-1 5 mg/kg) it was 0/6; in assay [1] (setting [3]), 0/6; in assay [1] (setting [4]), 0/6; in assay [1] (Retching + emesis, I-1 5 mg/kg), 0/6. Further, the “Number of individuals with the symptom/Number of cases” value in assay [1] (Retching, I-1 0.05 mg/kg) is reported as 0/6; in assay [1] (Retching, I-1 0.5 mg/kg), 0/6; in assay [1] (Retching, I-1 5 mg/kg) it was 0/6. In addition, the negative logarithm of the Ki (pKi) (in general, the Ki on a negative log10 scale, so that one unit is a factor of ten) in assay [2] was 9.21.

For the compound `CC(C)(C)C(=O)OCOC(=O)c1ccc2c3c([nH]c2c1)[C@@H]1Oc2c(O)ccc4c2[C@@]12CCN(CC1CC1)[C@H](C4)[C@]2(O)C3` [Compound I-2], in assay [2], the negative logarithm of the Ki (pKi) was 8.77.

In assay [2], `Cc1oc(=O)oc1COC(=O)c1ccc2c3c([nH]c2c1)[C@@H]1Oc2c(O)ccc4c2[C@@]12CCN(CC1CC1)[C@H](C4)[C@]2(O)C3` [Compound I-3] gave a negative-log Ki (pKi) of 8.97.

`CCCC(=O)OCOC(=O)c1ccc2c3c([nH]c2c1)[C@@H]1Oc2c(O)ccc4c2[C@@]12CCN(CC1CC1)[C@H](C4)[C@]2(O)C3` [Compound I-4]: the pKi in assay [2] is 8.94.

In turn, `CC(=O)OC(C)OC(=O)c1ccc2c3c([nH]c2c1)[C@@H]1Oc2c(O)ccc4c2[C@@]12CCN(CC1CC1)[C@H](C4)[C@]2(O)C3` (stereo partly drawn) [Compound I-8] had a negative-log Ki (pKi) in assay [2] of 8.86.

As to `CC(OC(=O)c1ccc2c3c([nH]c2c1)[C@@H]1Oc2c(O)ccc4c2[C@@]12CCN(CC1CC1)[C@H](C4)[C@]2(O)C3)OC(=O)C(C)C` (stereo partly drawn) [Compound I-9], in assay [2], the pKi was 8.90.
